In US12383555B2, “Methods of treating cancers” (Foghorn Therapeutics Inc., priority 2020, dated 2025):

Experiments:
[1] = tested on: AML cell lines (OCIAML5, KASUMI1); experiment: Cancer cell line growth inhibition (Cell-titer glo, GI50, day 3 and day 7), compound 18; type: cell-based; settings: compound 18, 0 to 10 micromolar
Procedure: Procedure: Uveal melanoma cell lines (92-1, MP41, MP38, MP46), prostate cancer cell lines (LNCAP), lung cancer cell lines (NCIH1299), and immortalized embryonic kidney lines (HEK293T) were plated into 96 well plates with growth media (see Table 1). […] Cells were incubated at 37° C. for 3 days. After 3 days of treatment, the media was removed from the cells, and 30 microliters of TrypLE (Gibco) was added to cells for 10 minutes. Cells were detached from the plates and resuspended with the addition of 170 microliters of growth media. Cells from two DMSO-treated control wells were counted, and the initial number of cells plated at the start of the experiment, were re-plated into fresh-compound containing plates for an additional four days at 37° C. At day 7, cells were harvested as described above.
On day 3 and day 7, relative cell growth was measured by the addition of Cell-titer glo (Promega), and luminescence was measured on an Envision plate reader (Perkin Elmer).
At the time of cell splitting on days 3 and 7, cells were split into new 96 well plates, and fresh compound was added four hours after re-plating.
Procedure: All cell lines described above in Example 2 were also tested as described above with compound 18. In addition, the following cell lines were also tested as follows. […]

[2] = Tolerability by % body weight change in EOL-1 or MV4;11 tumor-bearing mice; type: in vivo; settings: 50 mg/kg daily for 21 days, oral route; MV4;11 and EOL-1 models
Procedure: (§1) Method: BALB/c Nude mice (Beijing Anikeeper Biotech, Beijing) were inoculated subcutaneously on the right flank with the single cell suspension of EOL-1 or MV4;11 human AML tumor cells (1×10^7) in 100 μL IDMD in 10% Fetal Bovine Serum (FBS). When tumor size reach ˜100 mm3, the mice were randomized into either Vehicle group [20% HP-β-CD) or Treatment group: Compound 19 at 50 mg/kg daily for 21 days per oral route. All dose volumes were adjusted by body weights in terms of mg/kg.

[3] = tested on: EOL-1 human AML tumor cells; experiment: Subcutaneous EOL-1 tumor growth in vivo; design: species or system BALB/c Nude mice; settings: 50 mg/kg daily for 21 days, oral route
Procedure: as §1

[4] = tested on: MV4;11 human AML tumor cells; experiment: Subcutaneous MV4;11 tumor growth in vivo; design: species or system BALB/c Nude mice; settings: 50 mg/kg daily for 21 days, oral route
Procedure: as §1

[5] = tested on: OCI-AML2 human AML tumor cells; experiment: Subcutaneous OCI-AML2 tumor growth in vivo; design: species or system SCID mice; settings: 1.5 mg/kg daily for 21 days, oral route; tumor carries a DNMT3A mutation
Procedure: (§2) Method: SCID mice (Charles River, Wilmington) were inoculated subcutaneously on the right flank with the single cell suspension of OCI-AML2 human AML tumor cells (1×10^7) in 100 μL in RPMI-1640 media. When tumor size reach ˜100 mm^3, the mice were randomized into either Vehicle group (20% HP-β-CD) or Treatment group (Compound 20 at 1.5 mg/kg daily for 21 days per oral route). All dose volumes were adjusted by body weights in terms of mg/kg.

[6] = Tolerability by % body weight change in OCI-AML2 tumor-bearing mice; type: in vivo; settings: 1.5 mg/kg daily for 21 days, oral route
Procedure: as §2

AML cell lines (OCIAML5) = experiment: Cancer cell line growth inhibition (Cell-titer glo, GI50, day 3 and day 7), compound 17; type: cell-based; settings: compound 17, 0 to 10 micromolar

In the case of `CSCC[C@H](NC(=O)c1ccn(S(C)(=O)=O)c1)C(=O)Nc1nc(-c2cccc(-c3ccncc3)c2)cs1` [Compound 18, (S)-1-(methylsulfonyl)-N-(4-(methylthio)-1-oxo-1-((4-(3-(pyridin-4-yl)phenyl)thiazol-2-yl)amino)butan-2-yl)-1H-pyrrole-3-carboxamide], the “Duration of inhibition of the AML cell lines (FIG. 2)” value [1] is reported as “maintained through day 7” and the “Sensitivity of the AML cell lines relative to the other tested cell lines (GI50, FIG. 2)” value ([1]; day 3 and day 7) is reported as “more sensitive to BRG1/BRM inhibition than the other tested cell lines”.
For `C[C@@H]1CN(c2cccc(-c3csc(NC(=O)CNC(=O)c4ccn(C(C)(C)C)c4)n3)n2)C[C@H](C)O1` [Compound 19, 1-(tert-butyl)-N-(2-((4-(6-(cis-2,6-dimethylmorpholino)pyridin-2-yl)thiazol-2-yl)amino)-2-oxoethyl)-1H-pyrrole-3-carboxamide], the “Tolerability based on % body weight change” value [2] was “well tolerated”, the “Effect on EOL-1 tumor growth (FIG. 5)” value [3] was “delayed the growth” and the “Effect on MV4;11 tumor growth (FIG. 4)” value [4] was “tumor stasis”.
For `COC[C@H](NC(=O)c1ccn(S(C)(=O)=O)c1)C(=O)Nc1nc(-c2cccc(N3C[C@@H](C)O[C@@H](C)C3)n2)cs1` [Compound 20, N—((S)-1-((4-(6-(cis-2,6-dimethylmorpholino)pyridin-2-yl)thiazol-2-yl)amino)-3-methoxy-1-oxopropan-2-yl)-1-(methylsulfonyl)-1H-pyrrole-3-carboxamide], the “Effect on OCI-AML2 tumor growth (FIG. 6)” value [5] was “inhibited the growth” and the “Tolerability based on % body weight change” value [6] was “well tolerated”.
In the case of `CSCC[C@H](NC(=O)c1ccc(N)cc1)C(=O)Nc1nc(-c2cccc(-c3ccncc3)c2)cs1` [Compound 17, 4-amino-N-[(1S)-3-methylsulfanyl-1-[[4-[3-(4-pyridyl)phenyl]thiazol-2-yl]carbamoyl]propyl]benzamide], the “Duration of inhibition of the AML cell lines (FIG. 1)” value (AML cell lines (OCIAML5)) is reported as “maintained through day 7”.
